Here are results for 17 compounds from patent US12122763B2, “Substituted piperidines for androgen receptor degradation” (UBIX THERAPEUTICS, INC., priority 2020, dated 2024).

SMILES strings stand for the structures.

In this assay the target is T1, Androgen Receptor (AR) protein (Homo sapiens, UniProt P10275, T878A).
T1 construct: endogenous in cells; host or cells: LNCaP
In words: Androgen Receptor (AR) protein degradation assay in LNCaP cells, western blotting. The class given is cell-based. The conditions noted are these: 20 h; for inhibition at 0.01 µM: 0.01 μM compound; for inhibition at 0.1 µM: 0.1 μM compound; for inhibition at 1 µM: 1 μM compound; for inhibition at 10 µM: 10 μM compound. An outline of the steps:
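LNCaP prostate cancer cells were cultured 3 days, then treated with compound for 20 h. Lysates in 1% SDS buffer were normalised by BCA, and 8 μg protein was run on 4–12% Bis-Tris gels. AR was immunoblotted with chemiluminescence, using GAPDH/β-actin as loading controls.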

T1 sequence (P10275 whole entry T878A): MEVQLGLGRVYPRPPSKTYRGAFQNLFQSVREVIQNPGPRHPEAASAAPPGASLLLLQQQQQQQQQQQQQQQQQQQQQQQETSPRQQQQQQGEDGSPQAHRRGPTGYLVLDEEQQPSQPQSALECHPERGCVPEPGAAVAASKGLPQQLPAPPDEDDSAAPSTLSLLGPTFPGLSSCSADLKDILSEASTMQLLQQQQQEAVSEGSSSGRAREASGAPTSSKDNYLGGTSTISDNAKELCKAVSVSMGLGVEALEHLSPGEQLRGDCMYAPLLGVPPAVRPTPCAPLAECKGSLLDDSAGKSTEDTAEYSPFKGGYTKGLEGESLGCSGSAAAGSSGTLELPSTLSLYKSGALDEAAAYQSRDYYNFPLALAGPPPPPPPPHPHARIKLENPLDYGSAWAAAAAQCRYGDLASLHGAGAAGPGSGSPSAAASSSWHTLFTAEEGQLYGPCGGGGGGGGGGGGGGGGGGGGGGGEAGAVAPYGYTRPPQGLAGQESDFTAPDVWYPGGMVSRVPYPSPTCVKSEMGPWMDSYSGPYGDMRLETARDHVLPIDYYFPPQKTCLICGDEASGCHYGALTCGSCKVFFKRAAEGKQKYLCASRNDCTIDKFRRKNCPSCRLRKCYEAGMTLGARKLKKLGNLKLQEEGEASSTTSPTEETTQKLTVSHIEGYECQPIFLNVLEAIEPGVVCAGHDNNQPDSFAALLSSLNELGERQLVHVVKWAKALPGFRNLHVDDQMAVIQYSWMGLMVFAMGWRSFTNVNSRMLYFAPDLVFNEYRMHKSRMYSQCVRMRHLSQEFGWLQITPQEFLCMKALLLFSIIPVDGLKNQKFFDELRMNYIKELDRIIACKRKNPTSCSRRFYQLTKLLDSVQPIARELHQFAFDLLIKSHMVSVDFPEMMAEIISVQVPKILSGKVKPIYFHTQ
T1 sequence (Q96SW2 whole entry partner): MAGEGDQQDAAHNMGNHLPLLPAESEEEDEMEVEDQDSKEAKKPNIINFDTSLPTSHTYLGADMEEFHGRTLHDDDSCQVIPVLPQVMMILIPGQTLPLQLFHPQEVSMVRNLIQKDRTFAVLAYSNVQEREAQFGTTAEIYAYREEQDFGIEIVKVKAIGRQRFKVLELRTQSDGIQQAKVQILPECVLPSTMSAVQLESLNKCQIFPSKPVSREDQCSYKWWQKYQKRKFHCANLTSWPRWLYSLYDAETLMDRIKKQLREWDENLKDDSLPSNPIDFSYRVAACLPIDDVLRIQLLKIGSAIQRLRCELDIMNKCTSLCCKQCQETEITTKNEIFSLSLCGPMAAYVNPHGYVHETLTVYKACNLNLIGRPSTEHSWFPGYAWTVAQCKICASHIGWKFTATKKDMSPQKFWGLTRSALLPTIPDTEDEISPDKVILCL

Broadly, the inhibition is how much of the control response was suppressed. Compound `N#Cc1ccc(N2CCC(C(=O)Nc3ccc(N4CCN(C(=O)CCCCCNc5ccc6c(c5)C(=O)N(C5CCC(=O)NC5=O)C6=O)CC4)cn3)CC2)cc1C(F)(F)F` (centres unmarked) [Example 111, 1-(4-cyano-3-(trifluoromethyl)phenyl)-N-(5-(4-(6-((2-(2,6-dioxopiperidin-3-yl)-1,3-dioxoisoindolin-5-yl)amino)hexanoyl)piperazin-1-yl)pyridin-2-yl)piperidine-4-carboxamide] yielded an inhibition at 0.01 µM of 29%, an inhibition at 0.1 µM of 70%, an inhibition at 1 µM of 67% and an inhibition at 10 µM of 67%.
As for `N#Cc1ccc(N2CCC(C(=O)Nc3ccc(N4CCN(C(=O)CCCCCNc5ccc6c(c5)C(=O)N(C5CCC(=O)NC5=O)C6=O)CC4)cn3)CC2)cc1Cl` (centres unmarked) [Example 112, 1-(3-chloro-4-cyanophenyl)-N-(5-(4-(6-((2-(2,6-dioxopiperidin-3-yl)-1,3-dioxoisoindolin-5-yl)amino)hexanoyl)piperazin-1-yl)pyridin-2-yl)piperidine-4-carboxamide], the inhibition at 0.01 µM is 9%, testing at 0.1 µM gave an inhibition of 55%, the inhibition at 1 µM is 50% and the inhibition at 10 µM stood at 48%.
`N#Cc1ccc(N2CCC(C(=O)Nc3ccc(N4CCN(CCCCCOc5ccc6c(c5)C(=O)N(C5CCC(=O)NC5=O)C6=O)CC4)cn3)CC2)cc1C(F)(F)F` (centres unmarked) [Example 113, 1-(4-cyano-3-(trifluoromethyl)phenyl)-N-(5-(4-(5-((2-(2,6-dioxopiperidin-3-yl)-1,3-dioxoisoindolin-5-yl)oxy)pentyl)piperazin-1-yl)pyridin-2-yl)piperidine-4-carboxamide] showed an inhibition at 0.01 µM of 55%, an inhibition at 0.1 µM of 92% and an inhibition at 1 µM of 87%.
On to `N#Cc1ccc(N2CCC(C(=O)Nc3ccc(N4CCN(CCCCCOc5ccc6c(c5)C(=O)N(C5CCC(=O)NC5=O)C6=O)CC4)cn3)CC2)cc1Cl` (centres unmarked) [Example 114, 1-(3-chloro-4-cyanophenyl)-N-(5-(4-(5-((2-(2,6-dioxopiperidin-3-yl)-1,3-dioxoisoindolin-5-yl)oxy)pentyl)piperazin-1-yl)pyridin-2-yl)piperidine-4-carboxamide], for which at 0.01 µM the inhibition was 41%, the inhibition at 0.1 µM is 89% and the inhibition at 1 µM is 91%.
`N#Cc1ccc(N2CCC(C(=O)Nc3ccc(N4CCN(CCCCOc5ccc6c(c5)C(=O)N(C5CCC(=O)NC5=O)C6=O)CC4)cn3)CC2)cc1C(F)(F)F` (centres unmarked) [Example 115, 1-(4-cyano-3-(trifluoromethyl)phenyl)-N-(5-(4-(4-((2-(2,6-dioxopiperidin-3-yl)-1,3-dioxoisoindolin-5-yl)oxy)butyl)piperazin-1-yl)pyridin-2-yl)piperidine-4-carboxamide] showed an inhibition at 0.01 µM of 18%, an inhibition at 0.1 µM of 89% and an inhibition at 1 µM of 87%.
As for `N#Cc1ccc(N2CCC(C(=O)Nc3ccc(N4CCN(CCCCOc5ccc6c(c5)C(=O)N(C5CCC(=O)NC5=O)C6=O)CC4)cn3)CC2)cc1Cl` (centres unmarked) [Example 116, 1-(3-chloro-4-cyanophenyl)-N-(5-(4-(4-((2-(2,6-dioxopiperidin-3-yl)-1,3-dioxoisoindolin-5-yl)oxy)butyl)piperazin-1-yl)pyridin-2-yl)piperidine-4-carboxamide], 0.01 µM produced 24% inhibition, the inhibition at 0.1 µM came out at 43% and the inhibition at 1 µM is 53%.
The corresponding values for `N#Cc1ccc(N2CCC(C(=O)Nc3ccc(N4CCN(CCOC5CCN(c6ccc7c(c6)C(=O)N(C6CCC(=O)NC6=O)C7=O)CC5)CC4)cn3)CC2)cc1C(F)(F)F` (centres unmarked) [Example 117, 1-(4-cyano-3-(trifluoromethyl)phenyl)-N-(5-(4-(2-((1-(2-(2,6-dioxopiperidin-3-yl)-1,3-dioxoisoindolin-5-yl)piperidin-4-yl)oxy)ethyl)piperazin-1-yl)pyridin-2-yl)piperidine-4-carboxamide] are 35%, 84% and 94%.
In turn, `N#Cc1ccc(N2CCC(C(=O)Nc3ccc(N4CCN(CCOC5CCN(c6ccc7c(c6)C(=O)N(C6CCC(=O)NC6=O)C7=O)CC5)CC4)cn3)CC2)cc1Cl` (centres unmarked) [Example 118, 1-(3-chloro-4-cyanophenyl)-N-(5-(4-(2-((1-(2-(2,6-dioxopiperidin-3-yl)-1,3-dioxoisoindolin-5-yl)piperidin-4-yl)oxy)ethyl)piperazin-1-yl)pyridin-2-yl)piperidine-4-carboxamide] had an inhibition at 0.01 µM of 34%, an inhibition at 0.1 µM of 62% and an inhibition at 1 µM of 88%.
In the same order, the values of `N#Cc1ccc(N2CCC(C(=O)Nc3ccc(N4CCN(CCC5CCN(c6ccc7c(c6)C(=O)N(C6CCC(=O)NC6=O)C7=O)CC5)CC4)cn3)CC2)cc1C(F)(F)F` (centres unmarked) [Example 119, 1-(4-cyano-3-(trifluoromethyl)phenyl)-N-(5-(4-(2-(1-(2-(2,6-dioxopiperidin-3-yl)-1,3-dioxoisoindolin-5-yl)piperidin-4-yl)ethyl)piperazin-1-yl)pyridin-2-yl)piperidine-4-carboxamide] are 21%, 90% and 26%.
The corresponding values for `N#Cc1ccc(N2CCC(C(=O)Nc3ccc(N4CCN(CCC5CCN(c6ccc7c(c6)C(=O)N(C6CCC(=O)NC6=O)C7=O)CC5)CC4)cn3)CC2)cc1Cl` (centres unmarked) [Example 120, 1-(3-chloro-4-cyanophenyl)-N-(5-(4-(2-(1-(2-(2,6-dioxopiperidin-3-yl)-1,3-dioxoisoindolin-5-yl)piperidin-4-yl)ethyl)piperazin-1-yl)pyridin-2-yl)piperidine-4-carboxamide] are 0%, 88% and 96%.
The compound `N#Cc1ccc(N2CCC(C(=O)Nc3ccc(N4CC5(CCN(CC6CCN(c7ccc8c(c7)C(=O)N(C7CCC(=O)NC7=O)C8=O)CC6)CC5)C4)cn3)CC2)cc1C(F)(F)F` (centres unmarked) [Example 121, 1-(4-cyano-3-(trifluoromethyl)phenyl)-N-(5-(7-((1-(2-(2,6-dioxopiperidin-3-yl)-1,3-dioxoisoindolin-5-yl)piperidin-4-yl)methyl)-2,7-diazaspiro[3.5]nonan-2-yl)pyridin-2-yl)piperidine-4-carboxamide] registered an inhibition at 0.01 µM of 81%, an inhibition at 0.1 µM of 98% and an inhibition at 1 µM of 98%.
Regarding `N#Cc1ccc(N2CCC(C(=O)Nc3ccc(N4CC5(CCN(CC6CCN(c7ccc8c(c7)C(=O)N(C7CCC(=O)NC7=O)C8=O)CC6)CC5)C4)cn3)CC2)cc1Cl` (centres unmarked) [Example 122, 1-(3-chloro-4-cyanophenyl)-N-(5-(7-((1-(2-(2,6-dioxopiperidin-3-yl)-1,3-dioxoisoindolin-5-yl)piperidin-4-yl)methyl)-2,7-diazaspiro[3.5]nonan-2-yl)pyridin-2-yl)piperidine-4-carboxamide], the inhibition at 0.01 µM stood at 71%, the inhibition at 0.1 µM was determined as 76% and the inhibition at 1 µM is 74%.
In the case of `N#Cc1ccc(N2CCC(C(=O)Nc3ccc(N4CC5(CCN(CC6CN(c7ccc8c(c7)C(=O)N(C7CCC(=O)NC7=O)C8=O)C6)CC5)C4)cn3)CC2)cc1C(F)(F)F` (centres unmarked) [Example 123, 1-(4-cyano-3-(trifluoromethyl)phenyl)-N-(5-(7-((1-(2-(2,6-dioxopiperidin-3-yl)-1,3-dioxoisoindolin-5-yl)azetidin-3-yl)methyl)-2,7-diazaspiro[3.5]nonan-2-yl)pyridin-2-yl)piperidine-4-carboxamide], the inhibition at 0.01 µM amounted to 55%, testing at 0.1 µM gave an inhibition of 91% and at 1 µM the inhibition was 97%.
Take `N#Cc1ccc(N2CCC(C(=O)Nc3ccc(N4CC5(CCN(CC6CN(c7ccc8c(c7)C(=O)N(C7CCC(=O)NC7=O)C8=O)C6)CC5)C4)cn3)CC2)cc1Cl` (centres unmarked) [Example 124, 1-(3-chloro-4-cyanophenyl)-N-(5-(7-((1-(2-(2,6-dioxopiperidin-3-yl)-1,3-dioxoisoindolin-5-yl)azetidin-3-yl)methyl)-2,7-diazaspiro[3.5]nonan-2-yl)pyridin-2-yl)piperidine-4-carboxamide]: at 0.01 µM the inhibition was 52%, 0.1 µM produced 88% inhibition and 1 µM produced 96% inhibition.
In the case of `N#Cc1ccc(N2CCC(C(=O)Nc3ccc(N4CC5(CCN(C[C@H]6CCN(c7ccc8c(c7)C(=O)N(C7CCC(=O)NC7=O)C8=O)C6)CC5)C4)cn3)CC2)cc1C(F)(F)F` (stereo partly drawn) [Example 125, 1-(4-cyano-3-(trifluoromethyl)phenyl)-N-(5-(7-(((3R)-1-(2-(2,6-dioxopiperidin-3-yl)-1,3-dioxoisoindolin-5-yl)pyrrolidin-3-yl)methyl)-2,7-diazaspiro[3.5]nonan-2-yl)pyridin-2-yl)piperidine-4-carboxamide], the inhibition at 0.01 µM worked out at 25%, 0.1 µM produced 84% inhibition and the inhibition at 1 µM worked out at 92%.
In turn, `N#Cc1ccc(N2CCC(C(=O)Nc3ccc(N4CC5(CCN(C[C@@H]6CCN(c7ccc8c(c7)C(=O)N(C7CCC(=O)NC7=O)C8=O)C6)CC5)C4)cn3)CC2)cc1C(F)(F)F` (stereo partly drawn) [Example 126, 1-(4-cyano-3-(trifluoromethyl)phenyl)-N-(5-(7-(((3S)-1-(2-(2,6-dioxopiperidin-3-yl)-1,3-dioxoisoindolin-5-yl)pyrrolidin-3-yl)methyl)-2,7-diazaspiro[3.5]nonan-2-yl)pyridin-2-yl)piperidine-4-carboxamide] had an inhibition at 0.01 µM of 51%, an inhibition at 0.1 µM of 89% and an inhibition at 1 µM of 96%.
The corresponding values for `N#Cc1ccc(N2CCC(C(=O)Nc3ccc(N4CCC5(CC4)CN(CC4CCN(c6ccc7c(c6)C(=O)N(C6CCC(=O)NC6=O)C7=O)CC4)C5)cn3)CC2)cc1C(F)(F)F` (centres unmarked) [Example 127, 1-(4-cyano-3-(trifluoromethyl)phenyl)-N-(5-(2-((1-(2-(2,6-dioxopiperidin-3-yl)-1,3-dioxoisoindolin-5-yl)piperidin-4-yl)methyl)-2,7-diazaspiro[3.5]nonan-7-yl)pyridin-2-yl)piperidine-4-carboxamide] are 34%, 52% and 66%.
